The source made the active and inactive calls. No cut-off for these calls is given here.
What was measured:
[1] = molecular target: T1, DNA topoisomerase 1 (Homo sapiens) (UniProt P11387); assay: Inhibition of Top (unknown origin) mediated supercoiled DNA relaxation at 100 uM
T1 sequence (whole entry): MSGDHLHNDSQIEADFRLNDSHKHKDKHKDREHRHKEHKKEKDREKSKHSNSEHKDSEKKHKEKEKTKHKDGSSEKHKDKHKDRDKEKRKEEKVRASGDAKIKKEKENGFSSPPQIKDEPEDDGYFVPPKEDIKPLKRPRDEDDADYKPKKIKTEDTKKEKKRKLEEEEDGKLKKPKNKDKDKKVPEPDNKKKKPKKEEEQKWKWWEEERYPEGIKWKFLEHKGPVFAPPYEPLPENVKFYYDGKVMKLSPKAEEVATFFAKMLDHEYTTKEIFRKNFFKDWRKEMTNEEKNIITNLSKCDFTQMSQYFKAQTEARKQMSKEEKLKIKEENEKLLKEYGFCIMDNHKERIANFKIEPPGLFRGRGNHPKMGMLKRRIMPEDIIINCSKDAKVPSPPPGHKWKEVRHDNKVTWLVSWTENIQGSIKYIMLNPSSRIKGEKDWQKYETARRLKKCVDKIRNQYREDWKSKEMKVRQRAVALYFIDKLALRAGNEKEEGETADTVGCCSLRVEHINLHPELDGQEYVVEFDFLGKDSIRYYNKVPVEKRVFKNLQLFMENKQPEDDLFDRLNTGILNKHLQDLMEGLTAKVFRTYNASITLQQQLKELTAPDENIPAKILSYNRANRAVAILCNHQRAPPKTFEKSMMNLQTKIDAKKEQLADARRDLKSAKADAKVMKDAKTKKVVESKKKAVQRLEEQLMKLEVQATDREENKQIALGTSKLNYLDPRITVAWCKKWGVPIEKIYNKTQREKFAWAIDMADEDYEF

[2] = Half life in Sprague-Dawley rat at 2.5 mg/kg, iv after 24 hrs by LC-MS/MS analysis; type: ADME, organism-based; conditions: in vivo
[3] = AUC (0 to t) in Sprague-Dawley rat at 5 mg/kg, po after 24 hrs by LC-MS/MS analysis; type: ADME, organism-based; parameters: route oral, time 24 hrs, dose 5 mg/kg; conditions: in vivo
Cytochrome P450 1A2 = molecular target: T2, Cytochrome P450 1A2 (Homo sapiens, UniProt P05177); assay: Inhibition of CYP1A2 (unknown origin); type: ADME
T2 sequence (P05177 whole entry): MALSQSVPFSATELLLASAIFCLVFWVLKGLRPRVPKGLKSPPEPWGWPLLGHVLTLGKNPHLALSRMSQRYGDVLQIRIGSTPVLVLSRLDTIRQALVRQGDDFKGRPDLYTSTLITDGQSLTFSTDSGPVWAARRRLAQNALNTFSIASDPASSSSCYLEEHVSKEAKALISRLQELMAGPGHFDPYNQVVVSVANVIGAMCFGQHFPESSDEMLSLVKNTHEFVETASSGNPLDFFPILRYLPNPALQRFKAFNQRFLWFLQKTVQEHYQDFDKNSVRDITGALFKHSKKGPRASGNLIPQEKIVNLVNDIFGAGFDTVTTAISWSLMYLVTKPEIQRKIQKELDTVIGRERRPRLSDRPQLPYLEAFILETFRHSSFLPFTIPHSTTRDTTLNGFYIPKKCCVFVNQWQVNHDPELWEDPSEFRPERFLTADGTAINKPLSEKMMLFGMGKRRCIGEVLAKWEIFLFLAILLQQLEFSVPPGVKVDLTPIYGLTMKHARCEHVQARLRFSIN

COc1ccc2c3c([nH]c2c1)[C@@H]1N(CC3)C(=O)c2c(OC)cccc2N1C
inhibition [1]: inactive | half-life [2]: 13.2 min | AUC(0-t) at 24 h [3]: 146 ng·h/mL | IC50 (Cytochrome P450 1A2): 10 µM

From ChEMBL document CHEMBL4725363 (J Med Chem, 2020)
